Target: T1, CYP2c11 (Rattus norvegicus, UniProt P08683)
T1 sequence (P08683 1-500): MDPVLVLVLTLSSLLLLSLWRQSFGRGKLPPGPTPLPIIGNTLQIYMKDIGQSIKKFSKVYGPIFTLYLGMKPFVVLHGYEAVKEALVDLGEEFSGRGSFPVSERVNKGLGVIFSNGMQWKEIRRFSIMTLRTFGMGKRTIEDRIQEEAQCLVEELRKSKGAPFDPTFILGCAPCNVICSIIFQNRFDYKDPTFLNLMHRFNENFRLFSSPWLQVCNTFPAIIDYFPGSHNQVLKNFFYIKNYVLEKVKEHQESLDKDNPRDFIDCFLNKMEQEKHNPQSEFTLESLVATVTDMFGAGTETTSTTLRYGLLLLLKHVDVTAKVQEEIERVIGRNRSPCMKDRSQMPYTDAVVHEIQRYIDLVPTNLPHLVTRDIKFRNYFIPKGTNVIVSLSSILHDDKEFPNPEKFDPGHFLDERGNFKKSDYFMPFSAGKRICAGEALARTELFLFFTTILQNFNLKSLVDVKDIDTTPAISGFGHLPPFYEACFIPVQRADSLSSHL
Set-up: from tissue; host or cells: live male Sprague-Dawley rats (whole animal, mainly liver)
Conditions: in vivo
Procedure: The effect of the Zhicaowu–Hezi combination on CYP450 enzymes in rats was evaluated by examining the pharmacokinetics of theophylline (CYP1a2), metoprolol (CYP2d2), bupropion (CYP2b1), omeprazole (CYP2c13), chlorzoxazone (CYP2e1), testosterone (CYP3a1), and diclofenac (CYP2c11).
The collected blood was placed in sodium heparin-treated centrifuge tubes and centrifuged at 4°C for 10 min at 3,000 RPM. […] After 10 min of sedimentation, the supernatant was extracted through a 0.22-μm microporous membrane, 20 μL of which was injected into HPLC. The pharmacokinetic parameters of each probe drug were calculated using the non-atrial compartment model in Drug and Statistics software (DAS, 3.0; Shanghai, China).

CCC1(c2ccccc2)C(=O)NC(=O)NC1=O [P, phenobarbital sodium]
diclofenac AUC(0-t): 3978 ± 385 ng·h/mL | diclofenac AUC(0-∞): 4057 ± 343 ng·h/mL | diclofenac CLz/F: 3,071.310 ± 519.261 mL/h/kg | diclofenac Cmax: 735 ± 68 ng/mL | diclofenac t1/2 z: 3.342 ± 0.425 h

Reference: paper PMC12301304 (Frontiers in Pharmacology, 2025)
